Reference: US12297194B2, “N2-phenylpyrimidine-2,4-diamine compounds, and preparation methods and methods of use thereof” (BRIDGE BIOTHERAPEUTICS, INC., priority 2021, dated 2025)

Assays:
Type in all cases: cell-based, murine
[1] = target: Ba/F3 EGFR L858R/C797S mutants (Homo sapiens, UniProt P00533, C797S/L858R, cells depend on it); assay: CellTiter-Glo cell viability, Ba/F3 EGFR L858R/C797S cells; conditions: 72 hours, read-out: Ba/F3 EGFR mutant cell (IC50, nM) L/C
How it was run: (§1)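 IC50 values derive from CellTiter-Glo luminescence measured after 72 hours of treatment of EGFR-dependent Ba/F3 cells, dosed at concentrations up to 2000 nM starting 24 hours after seeding.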

Ba/F3 EGFR Wild-type = Ba/F3 EGFR Wild-type (Homo sapiens, UniProt P00533); assay: CellTiter-Glo cell viability, Ba/F3 EGFR wild-type cells; conditions: 72 hours, read-out: Ba/F3 EGFR mutant cell (IC50, nM) WT
How it was run: as §1

[2] = target: Ba/F3 EGFR Del19/C797S mutants (Homo sapiens, UniProt P00533, C797S, cells depend on it, form not given); assay: CellTiter-Glo cell viability, Ba/F3 EGFR Del19/C797S cells; conditions: 72 hours, read-out: Ba/F3 EGFR mutant cell (IC50, nM) D/C
Chain of Ba/F3 EGFR Del19/C797S mutants (P00533 with tags, fused parts or gaps DEL746-750/C797S, form open): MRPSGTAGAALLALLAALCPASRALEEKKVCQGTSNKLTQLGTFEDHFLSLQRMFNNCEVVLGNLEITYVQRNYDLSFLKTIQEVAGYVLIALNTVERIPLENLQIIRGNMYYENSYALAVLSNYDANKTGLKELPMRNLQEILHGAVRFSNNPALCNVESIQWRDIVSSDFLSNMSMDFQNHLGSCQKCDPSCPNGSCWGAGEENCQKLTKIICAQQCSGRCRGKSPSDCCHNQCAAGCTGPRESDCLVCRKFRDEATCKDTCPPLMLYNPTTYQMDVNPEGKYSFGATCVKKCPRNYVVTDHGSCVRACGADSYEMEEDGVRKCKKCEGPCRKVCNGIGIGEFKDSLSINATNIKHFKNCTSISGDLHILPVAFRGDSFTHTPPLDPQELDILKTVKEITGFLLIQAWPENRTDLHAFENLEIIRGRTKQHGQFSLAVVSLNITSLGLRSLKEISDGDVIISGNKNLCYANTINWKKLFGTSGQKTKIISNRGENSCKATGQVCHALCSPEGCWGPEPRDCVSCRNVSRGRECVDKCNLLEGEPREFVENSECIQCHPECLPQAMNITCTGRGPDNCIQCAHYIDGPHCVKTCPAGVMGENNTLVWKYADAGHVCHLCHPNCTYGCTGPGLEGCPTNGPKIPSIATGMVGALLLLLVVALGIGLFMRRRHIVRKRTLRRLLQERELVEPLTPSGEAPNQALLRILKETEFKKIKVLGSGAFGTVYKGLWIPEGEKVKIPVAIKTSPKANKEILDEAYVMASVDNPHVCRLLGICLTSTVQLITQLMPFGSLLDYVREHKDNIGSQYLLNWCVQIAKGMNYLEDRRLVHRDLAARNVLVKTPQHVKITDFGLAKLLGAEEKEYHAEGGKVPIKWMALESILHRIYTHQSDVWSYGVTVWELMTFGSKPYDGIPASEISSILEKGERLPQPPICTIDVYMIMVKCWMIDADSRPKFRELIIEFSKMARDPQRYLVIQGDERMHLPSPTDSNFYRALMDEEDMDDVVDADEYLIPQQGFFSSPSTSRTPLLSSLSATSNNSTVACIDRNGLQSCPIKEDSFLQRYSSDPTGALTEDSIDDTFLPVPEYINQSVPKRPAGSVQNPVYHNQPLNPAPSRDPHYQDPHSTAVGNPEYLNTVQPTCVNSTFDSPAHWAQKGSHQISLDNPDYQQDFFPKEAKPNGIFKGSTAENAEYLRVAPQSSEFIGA
How it was run: as §1

[3] = target: Ba/F3 EGFR Del19/T790M mutants (Homo sapiens, UniProt P00533, T790M, cells depend on it, form not given); assay: CellTiter-Glo cell viability, Ba/F3 EGFR Del19/T790M cells; conditions: 72 hours, read-out: Ba/F3 EGFR mutant cell (IC50, nM) D/T
Chain of Ba/F3 EGFR Del19/T790M mutants (P00533 with tags, fused parts or gaps DEL746-750/T790M, form open): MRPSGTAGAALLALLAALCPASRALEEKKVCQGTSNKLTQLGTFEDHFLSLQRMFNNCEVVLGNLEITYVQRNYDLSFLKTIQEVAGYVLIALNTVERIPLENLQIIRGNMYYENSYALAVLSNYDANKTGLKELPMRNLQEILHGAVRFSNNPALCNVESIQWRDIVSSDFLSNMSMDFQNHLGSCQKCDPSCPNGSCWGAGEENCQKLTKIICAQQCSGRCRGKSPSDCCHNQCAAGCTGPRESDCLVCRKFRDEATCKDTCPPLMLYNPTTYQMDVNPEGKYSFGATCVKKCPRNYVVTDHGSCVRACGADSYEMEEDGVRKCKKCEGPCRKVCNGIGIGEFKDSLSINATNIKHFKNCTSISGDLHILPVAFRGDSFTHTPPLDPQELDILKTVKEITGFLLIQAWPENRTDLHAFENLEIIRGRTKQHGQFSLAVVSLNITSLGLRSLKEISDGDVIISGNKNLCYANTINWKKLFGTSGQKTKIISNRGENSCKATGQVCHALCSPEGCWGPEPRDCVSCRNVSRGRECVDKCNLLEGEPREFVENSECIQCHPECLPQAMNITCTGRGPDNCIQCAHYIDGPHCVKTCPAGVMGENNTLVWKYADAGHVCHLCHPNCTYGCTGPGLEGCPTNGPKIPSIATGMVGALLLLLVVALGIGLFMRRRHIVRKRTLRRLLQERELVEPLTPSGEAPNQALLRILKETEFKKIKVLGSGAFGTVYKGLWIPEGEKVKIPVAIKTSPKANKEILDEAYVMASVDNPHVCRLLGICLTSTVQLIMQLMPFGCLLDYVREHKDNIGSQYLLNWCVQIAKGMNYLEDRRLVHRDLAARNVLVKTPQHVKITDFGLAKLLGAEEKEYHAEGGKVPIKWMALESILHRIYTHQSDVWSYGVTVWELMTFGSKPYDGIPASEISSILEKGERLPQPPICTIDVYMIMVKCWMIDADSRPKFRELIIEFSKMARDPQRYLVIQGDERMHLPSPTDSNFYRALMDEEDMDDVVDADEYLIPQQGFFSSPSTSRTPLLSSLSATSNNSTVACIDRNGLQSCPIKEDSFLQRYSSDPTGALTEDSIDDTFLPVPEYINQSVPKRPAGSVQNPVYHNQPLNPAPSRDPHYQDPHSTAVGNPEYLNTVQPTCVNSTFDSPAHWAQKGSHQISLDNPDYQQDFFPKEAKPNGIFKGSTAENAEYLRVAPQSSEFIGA
How it was run: as §1

[4] = target: Ba/F3 EGFR Del19/T790M/C797S mutants (Homo sapiens, UniProt P00533, T790M/C797S, cells depend on it, form not given); assay: CellTiter-Glo cell viability, Ba/F3 EGFR Del19/T790M/C797S cells; conditions: 72 hours, read-out: Ba/F3 EGFR mutant cell (IC50, nM) D/T/C
How it was run: as §1

[5] = target: Ba/F3 EGFR L858R/T790M/C797S mutants (Homo sapiens, UniProt P00533, T790M/C797S/L858R, cells depend on it); assay: CellTiter-Glo cell viability, Ba/F3 EGFR L858R/T790M/C797S cells; conditions: 72 hours, read-out: Ba/F3 EGFR mutant cell (IC50, nM) L/T/C
Chain of Ba/F3 EGFR L858R/T790M/C797S mutants (P00533 whole entry T790M/C797S/L858R): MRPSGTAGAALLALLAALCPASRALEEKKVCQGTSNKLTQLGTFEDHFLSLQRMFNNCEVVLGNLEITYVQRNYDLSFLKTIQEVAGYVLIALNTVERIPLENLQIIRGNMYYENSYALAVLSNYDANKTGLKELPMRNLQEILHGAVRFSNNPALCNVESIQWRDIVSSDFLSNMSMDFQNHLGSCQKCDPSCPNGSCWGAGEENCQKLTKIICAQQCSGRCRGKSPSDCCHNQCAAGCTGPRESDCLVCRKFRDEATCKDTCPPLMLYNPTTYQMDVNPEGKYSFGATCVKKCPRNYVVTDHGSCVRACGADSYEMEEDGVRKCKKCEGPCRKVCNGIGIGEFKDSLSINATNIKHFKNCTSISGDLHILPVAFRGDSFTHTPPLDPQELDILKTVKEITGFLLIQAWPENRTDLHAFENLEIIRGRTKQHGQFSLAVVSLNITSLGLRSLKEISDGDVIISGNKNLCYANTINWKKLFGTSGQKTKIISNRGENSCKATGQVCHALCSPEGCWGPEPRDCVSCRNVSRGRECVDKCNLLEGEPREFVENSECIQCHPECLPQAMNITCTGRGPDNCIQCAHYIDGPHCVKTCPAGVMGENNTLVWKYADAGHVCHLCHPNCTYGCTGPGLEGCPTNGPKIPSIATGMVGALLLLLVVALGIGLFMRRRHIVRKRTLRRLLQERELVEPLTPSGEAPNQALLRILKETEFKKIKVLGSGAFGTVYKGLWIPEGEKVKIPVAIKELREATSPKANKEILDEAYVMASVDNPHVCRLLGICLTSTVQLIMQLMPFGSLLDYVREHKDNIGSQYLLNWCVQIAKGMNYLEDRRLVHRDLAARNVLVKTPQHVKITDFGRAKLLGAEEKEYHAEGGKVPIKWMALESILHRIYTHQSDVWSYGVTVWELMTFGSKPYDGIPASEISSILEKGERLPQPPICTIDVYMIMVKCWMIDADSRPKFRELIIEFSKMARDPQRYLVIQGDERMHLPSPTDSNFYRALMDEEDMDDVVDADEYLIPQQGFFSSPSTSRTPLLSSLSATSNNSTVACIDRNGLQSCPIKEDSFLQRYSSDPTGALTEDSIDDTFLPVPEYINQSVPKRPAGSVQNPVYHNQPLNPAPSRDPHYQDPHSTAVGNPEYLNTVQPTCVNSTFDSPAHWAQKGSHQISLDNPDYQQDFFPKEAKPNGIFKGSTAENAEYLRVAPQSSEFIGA
How it was run: as §1

Chain of Ba/F3 EGFR L858R/C797S mutants (P00533 whole entry C797S/L858R): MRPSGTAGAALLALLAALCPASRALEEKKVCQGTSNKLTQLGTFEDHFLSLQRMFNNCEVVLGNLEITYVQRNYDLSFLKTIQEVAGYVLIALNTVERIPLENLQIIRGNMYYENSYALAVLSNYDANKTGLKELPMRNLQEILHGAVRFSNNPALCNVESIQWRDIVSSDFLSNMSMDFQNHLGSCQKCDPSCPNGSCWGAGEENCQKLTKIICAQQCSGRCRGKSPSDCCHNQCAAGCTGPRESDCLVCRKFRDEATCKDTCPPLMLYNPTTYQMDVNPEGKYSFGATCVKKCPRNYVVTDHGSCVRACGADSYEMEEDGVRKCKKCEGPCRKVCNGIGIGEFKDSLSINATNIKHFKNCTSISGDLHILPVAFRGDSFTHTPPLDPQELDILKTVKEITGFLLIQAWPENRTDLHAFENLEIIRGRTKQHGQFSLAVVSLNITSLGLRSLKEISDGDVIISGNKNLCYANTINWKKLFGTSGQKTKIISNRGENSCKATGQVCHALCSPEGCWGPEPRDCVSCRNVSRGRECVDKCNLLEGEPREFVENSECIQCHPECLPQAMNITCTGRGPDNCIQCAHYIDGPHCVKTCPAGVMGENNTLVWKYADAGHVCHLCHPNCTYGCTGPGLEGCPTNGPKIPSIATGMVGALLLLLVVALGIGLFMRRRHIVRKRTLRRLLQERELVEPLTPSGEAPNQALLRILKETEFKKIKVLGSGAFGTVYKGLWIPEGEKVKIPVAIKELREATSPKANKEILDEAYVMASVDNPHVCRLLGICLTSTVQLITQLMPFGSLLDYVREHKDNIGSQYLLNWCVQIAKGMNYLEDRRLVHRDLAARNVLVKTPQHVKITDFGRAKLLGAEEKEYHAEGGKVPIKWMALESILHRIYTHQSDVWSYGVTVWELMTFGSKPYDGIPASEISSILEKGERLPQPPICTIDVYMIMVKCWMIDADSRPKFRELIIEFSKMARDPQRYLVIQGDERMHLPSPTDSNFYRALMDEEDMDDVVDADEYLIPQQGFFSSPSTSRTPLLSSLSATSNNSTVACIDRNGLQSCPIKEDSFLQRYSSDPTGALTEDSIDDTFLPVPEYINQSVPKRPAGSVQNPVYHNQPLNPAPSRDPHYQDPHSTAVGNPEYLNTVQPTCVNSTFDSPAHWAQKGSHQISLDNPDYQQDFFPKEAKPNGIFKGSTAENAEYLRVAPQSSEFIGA

Structure (SMILES) | GI50 [1] | GI50 (Ba/F3 EGFR Wild-type) | GI50 [2] | GI50 [3] | GI50 [4] | GI50 [5]
COc1cc(N2CCC(N3CCN(C)CC3)CC2)c(C)cc1Nc1ncc(Br)c(Nc2cccc(OC)c2NS(C)(=O)=O)n1 [Example C1, N-(2-((5-bromo-2-((2-methoxy-5-methyl-4-(4-(4-methylpiperazin-1-yl)piperidin-1-yl)phenyl)amino)pyrimidin-4-yl)amino)-6-methoxyphenyl)methanesulfonamide] | 63 nM | 408 nM | 18 nM | 6 nM | 13 nM | 12 nM
CCc1cc(Nc2ncc(Cl)c(Nc3cccc(OC)c3NS(C)(=O)=O)n2)c(OC)cc1N1CCC(N2CCOCC2)CC1 [Example C20, N-(2-((5-chloro-2-((5-ethyl-2-methoxy-4-(4-morpholinopiperidin-1-yl)phenyl)amino)pyrimidin-4-yl)amino)-6-methoxyphenyl)methanesulfonamide] | 87 nM | 1160 nM | 22 nM | 21 nM | 21 nM | 148 nM
CCc1cc(Nc2ncc(Br)c(Nc3ccc4nccnc4c3NS(C)(=O)=O)n2)c(OC)cc1N1CCC(N2CCCC2)CC1 [Example A33, N-(6-((5-bromo-2-((5-ethyl-2-methoxy-4-(4-(pyrrolidin-1-yl)piperidin-1-yl)phenyl)amino)pyrimidin-4-yl)amino)quinoxalin-5-yl)methanesulfonamide] | 57 nM | > 2000 nM | 4 nM | 8 nM | 6 nM | 18 nM
COc1cc(N2CCC(N(C)C)CC2)c(C)cc1Nc1ncc(Br)c(Nc2cccc(OC)c2N(C)S(C)(=O)=O)n1 [Example C5, N-(2-((5-bromo-2-((4-(4-(dimethylamino)piperidin-1-yl)-2-methoxy-5-methylphenyl)amino)pyrimidin-4-yl)amino)-6-methoxyphenyl)-N-methylmethanesulfonamide] | 91 nM | 545 nM | 19 nM | 17 nM | 34 nM | 94 nM
CCc1cc(Nc2ncc(Cl)c(Nc3ccc4nccnc4c3NS(C)(=O)=O)n2)c(OC)cc1N1CC2CCC1CN2C(C)C (stereo not drawn) [Example B25, N-(6-((5-chloro-2-((5-ethyl-4-(5-isopropyl-2,5-diazabicyclo[2.2.2]octan-2-yl)-2-methoxyphenyl)amino)pyrimidin-4-yl)amino) 105 quinoxaline-5-yl)methanesulfonamide] | 93 nM | 829 nM | 16 nM | 26 nM | 22 nM | 83 nM
CCc1cc(Nc2ncc(Cl)c(Nc3ccc4nccnc4c3NS(C)(=O)=O)n2)c(OC)cc1N1CCC(N2CCN(C)CC2)CC1 [Example A2, N-(6-((5-chloro-2-((5-ethyl-2-methoxy-4-(4-(4-methylpiperazin-1-yl)piperidin-1-yl)phenyl)amino)pyrimidin-4-yl)amino)quinoxalin-5-yl)methanesulfonamide] | 26 nM | 381 nM | 12 nM | 4 nM | 4 nM | 9 nM
COc1cc(C2CCN(C)CC2)ccc1Nc1ncc(Cl)c(Nc2ccc3nccnc3c2NS(C)(=O)=O)n1 [Example B23, N-(6-((5-chloro-2-((2-methoxy-4-(1-methylpiperidin-4-yl)phenyl)amino)pyrimidin-4-yl)amino)quinoxalin-5-yl)methanesulfonamide] | 302 nM | 868 nM | 100 nM | 154 nM | 112 nM | 354 nM
CCc1cc(Nc2ncc(Cl)c(Nc3ccc4nccnc4c3N(C)S(C)(=O)=O)n2)c(OC)cc1N1CC2(C1)CN(C(C)C)C2 [Example B27, N-(6-((5-chloro-2-((5-ethyl-4-(6-isopropyl-2,6-diazaspiro[3.3]heptan-2-yl)-2-methoxyphenyl)amino)pyrimidin-4-yl)amino)quinoxalin-5-yl)-N-methylmethanesulfonamide] | 35 nM | 359 nM | 18 nM | 25 nM | 5 nM | 40 nM
